ChEMBL document CHEMBL1129601, “Inhibitors of acyl-CoA: cholesterol O-acyl transferase (ACAT) as hypocholesterolemic agents. CI-1011: an acyl sulfamate with unique cholesterol-lowering activity in animals fed noncholesterol-supplemented diets” (J Med Chem, 1996)
“And” between values parts separate entries of the source, which are not always exact repeats. Equal entries are not always repeated.

Legend:
[1] = tested on: Rattus norvegicus; assay: Evaluated for %change in Normal, Chow fed for rats Plasma total triglyceride plasma level in rats at the dose of 10 mg/kg; assay type: functional
[2] = tested on: Rattus norvegicus; assay: Evaluated for %change in Normal, Chow fed rats for total cholesterol plasma level in rats at the dose of 10 mg/kg; assay type: functional
[3] = tested on: Rattus norvegicus; assay: Evaluated for %change in Normal, Chow fed rats for total cholesterol plasma level in rats at the dose of 30 mg/kg; assay type: functional
[4] = tested on: Rattus norvegicus; assay: Evaluated for %change in cholesterol fed rats for total cholesterol at the dose of 1 mg/kg determined by Chronic screen test; assay type: functional
[5] = tested on: Rattus norvegicus; assay: Evaluated for %change in cholesterol fed rats for non-HDL-C at the dose of 10 mg/kg determined by Chronic screen test; assay type: functional
[6] = tested on: Rattus norvegicus; assay: Evaluated for %change in cholesterol fed rats for HDL-C at the dose of 0.1 mg/kg determined by Chronic screen test; assay type: functional
[7] = tested on: Rattus norvegicus; assay: Effect on the Cholesterol fed rats for total cholesterol level in rats at the dose of 0.03 mg/kg by Chroinc screen test; assay type: functional; note: unit not given here
[8] = tested on: Rattus norvegicus; assay: Evaluated for %change in cholesterol fed rats for HDL-C at the dose of 3 mg/kg determined by Chronic screen test; assay type: functional
[9] = tested on: Rattus norvegicus; assay: Evaluated for %change in cholesterol fed rats for HDL-C at the dose of 10 mg/kg determined by Chronic screen test; assay type: functional
[10] = tested on: Rattus norvegicus; assay: Effect on the Cholesterol fed rats for HDL-C in rats at the dose of 0.03 mg/kg by Chroinc screen test; assay type: functional; note: unit not given here
[11] = tested on: Rattus norvegicus; assay: Effect on the plasma cholesterol level in rats at the dose of 10 mg/kg by Acute screen test; assay type: functional, organism-based; parameters: dose 10 mg/kg
[12] = tested on: Rattus norvegicus; assay: Evaluated for %change in cholesterol fed rats at the dose of 1 mg/kg determined by Acute screen test; assay type: functional
[13] = tested on: Rattus norvegicus; assay: Effect on the Cholesterol fed rats for non-HDL-C in rats at the dose of 0.001 mg/kg by Chroinc screen test; assay type: functional
[14] = tested on: Rattus norvegicus; assay: Effect on the Cholesterol fed rats for total cholesterol level in rats at the dose of 0.3 mg/kg by Chroinc screen test; assay type: functional
[15] = tested on: Rattus norvegicus; assay: Evaluated for %change in cholesterol fed rats for non-HDL-C at the dose of 0.001 mg/kg determined by Chronic screen test; assay type: functional
[16] = tested on: Rattus norvegicus; assay: Effect on the Normal, Chow fed rats for total cholesterol plasma level in rats at the dose of 30 mg/kg; assay type: functional, organism-based; parameters: dose 30 mg/kg
[17] = tested on: Rattus norvegicus; assay: Evaluated for %change in cholesterol fed rats for non-HDL-C at the dose of 0.1 mg/kg determined by Chronic screen test; assay type: functional
[18] = tested on: Rattus norvegicus; assay: Effect on the Cholesterol fed rats for non-HDL-C in rats at the dose of 0.03 mg/kg by Chroinc screen test; assay type: functional; note: unit not given here
[19] = tested on: Rattus norvegicus; assay: Effect on the Cholesterol fed rats for non-HDL-C in rats at the dose of 0.3 mg/kg by Chroinc screen test; assay type: functional; note: unit not given here
[20] = tested on: Rattus norvegicus; assay: Effect on the Cholesterol fed rats for total cholesterol level in rats at the dose of 0.01 mg/kg by Chroinc screen test; assay type: functional
[21] = tested on: Rattus norvegicus; assay: Effect on the Cholesterol fed rats for total cholesterol level in rats at the dose of 0.1 mg/kg by Chroinc screen test; assay type: functional; note: unit not given here
[22] = tested on: Rattus norvegicus; assay: Evaluated for %change in cholesterol fed rats at the dose of 0.3 mg/kg determined by Acute screen test; assay type: functional
[23] = tested on: Rattus norvegicus; assay: Effect on the Cholesterol fed rats for non-HDL-C in rats at the dose of 10 mg/kg by Chroinc screen test; assay type: functional
[24] = tested on: Rattus norvegicus; assay: Effect on the plasma cholesterol level in rats at the dose of 1 mg/kg by Acute screen test; assay type: functional, organism-based; parameters: dose 1 mg/kg
[25] = tested on: Rattus norvegicus; assay: Evaluated for %change in cholesterol fed rats for HDL-C at the dose of 1 mg/kg determined by Chronic screen test; assay type: functional
[26] = tested on: Rattus norvegicus; assay: Effect on the Cholesterol fed rats for HDL-C in rats at the dose of 0.001 mg/kg by Chroinc screen test; assay type: functional; note: unit not given here
[27] = tested on: Rattus norvegicus; assay: Effect on the Normal, Chow fed rats for Plasma total triglyceride level in rats at the dose of 10 mg/kg; assay type: functional, organism-based; parameters: dose 10 mg/kg
[28] = tested on: Rattus norvegicus; assay: Effect on the Normal, Chow fed rats for total cholesterol plasma level in rats at the dose of 3 mg/kg; assay type: functional, organism-based; parameters: dose 3 mg/kg
[29] = tested on: Rattus norvegicus; assay: Evaluated for %change in cholesterol fed rats for total cholesterol at the dose of 0.01 mg/kg determined by Chronic screen test; assay type: functional
[30] = tested on: Oryctolagus cuniculus; assay: Effect on Rabbits (Fed a Cholesterol-Free Casein Diet ) for plasma cholesterol at the dose of 10 mg/kg (post treatment); assay type: functional, organism-based; parameters: dose 10 mg/kg
[31] = tested on: Rattus norvegicus; assay: Evaluated for %change in Normal, Chow fed for rats Plasma total triglyceride plasma level in rats at the dose of 3 mg/kg; assay type: functional
[32] = tested on: Rattus norvegicus; assay: Evaluated for %change in cholesterol fed rats for non-HDL-C at the dose of 3 mg/kg determined by Chronic screen test; assay type: functional
[33] = tested on: Rattus norvegicus; assay: Evaluated for %change in cholesterol fed rats for total cholesterol at the dose of 0.3 mg/kg determined by Chronic screen test; assay type: functional
[34] = tested on: Rattus norvegicus; assay: Effect on the plasma cholesterol level in rats at the dose of 3 mg/kg by Acute screen test; assay type: functional, organism-based; parameters: dose 3 mg/kg
[35] = tested on: Rattus norvegicus; assay: Effect on the Cholesterol fed rats for total cholesterol level in rats at the dose of 1 mg/kg by Chroinc screen test; assay type: functional; note: unit not given here
[36] = tested on: Oryctolagus cuniculus; assay: Effect on Rabbits (Fed a Cholesterol-Free Casein Diet ) for plasma cholesterol at the dose of 1 mg/kg (post treatment); assay type: functional, organism-based; parameters: dose 1 mg/kg
[37] = tested on: Rattus norvegicus; assay: Evaluated for %change in cholesterol fed rats for total cholesterol at the dose of 0.03 mg/kg determined by Chronic screen test; assay type: functional
[38] = tested on: Rattus norvegicus; assay: Evaluated for %change in cholesterol fed rats for HDL-C at the dose of 0.001 mg/kg determined by Chronic screen test; assay type: functional
[39] = tested on: Rattus norvegicus; assay: Evaluated for %change in cholesterol fed rats for non-HDL-C at the dose of 0.3 mg/kg determined by Chronic screen test; assay type: functional
[40] = tested on: Rattus norvegicus; assay: Effect on the Cholesterol fed rats for HDL-C in rats at the dose of 3 mg/kg by Chroinc screen test; assay type: functional
[41] = tested on: Rattus norvegicus; assay: Evaluated for %change in Normal, Chow fed for rats Plasma total triglyceride plasma level in rats at the dose of 30 mg/kg; assay type: functional
[42] = tested on: Rattus norvegicus; assay: Effect on the Cholesterol fed rats for non-HDL-C in rats at the dose of 1 mg/kg by Chroinc screen test; assay type: functional
[43] = tested on: Rattus norvegicus; assay: Evaluated for %change in Normal, Chow fed rats for total cholesterol plasma level in rats at the dose of 3 mg/kg; assay type: functional
[44] = tested on: Rattus norvegicus; assay: Effect on the Cholesterol fed rats for total cholesterol level in rats at the dose of 10 mg/kg by Chroinc screen test; assay type: functional; note: unit not given here
[45] = tested on: Rattus norvegicus; assay: Effect on the Cholesterol fed rats for HDL-C in rats at the dose of 0.3 mg/kg by Chroinc screen test; assay type: functional; note: unit not given here
[46] = tested on: Rattus norvegicus; assay: Effect on the Cholesterol fed rats for HDL-C in rats at the dose of 1 mg/kg by Chroinc screen test; assay type: functional; note: unit not given here
[47] = tested on: Rattus norvegicus; assay: Evaluated for %change in cholesterol fed rats for total cholesterol at the dose of 3 mg/kg determined by Chronic screen test; assay type: functional
[48] = tested on: Rattus norvegicus; assay: Evaluated for %change in cholesterol fed rats for total cholesterol at the dose of 0.001 mg/kg determined by Chronic screen test; assay type: functional
[49] = tested on: Rattus norvegicus; assay: Effect on the Cholesterol fed rats for HDL-C in rats at the dose of 0.1 mg/kg by Chroinc screen test; assay type: functional
[50] = tested on: Oryctolagus cuniculus; assay: Effect on Rabbits (Fed a Cholesterol-Free Casein Diet ) for plasma cholesterol at the dose of 1 mg/kg (pretreatment); assay type: functional, organism-based; parameters: dose 1 mg/kg

CC(C)c1cc(C(C)C)c(CC(=O)NS(=O)(=O)Oc2c(C(C)C)cccc2C(C)C)c(C(C)C)c1 [AVASIMIBE]
Change [1]: -55%
Change [2]: -25%
Change [3]: -30%
Change [4]: -61%
Change [5]: -84%
Change [6]: 17% and 7%
TC [7]: 334
Change [8]: 140%
Change [9]: 155%
HDL-C [10]: 15
Plasma cholesterol [11]: 51 mg/dL
Change [12]: -60%
Non-HDL-C [13]: 535
TC [14]: 90
Change [15]: 3%
Plasma TC [16]: 41 mg/dL
Change [17]: -45% and -41%
Non-HDL-C [18]: 320
Non-HDL-C [19]: 70
TC [20]: 619
TC [21]: 131 and 323
Change [22]: -56%
Non-HDL-C [23]: 33
Plasma cholesterol [24]: 72 mg/dL
Change [25]: 76%
HDL-C [26]: 16
Plasma TG [27]: 75 mg/dL
Plasma TC [28]: 49 mg/dL
Change [29]: 16%
Plasma cholesterol [30]: 118 mg/dL
Change [31]: -44%
Change [32]: -72%
Change [33]: -60%
Plasma cholesterol [34]: 66 mg/dL
TC [35]: 86
Plasma cholesterol [36]: 184 mg/dL
Change [37]: -38%
Change [38]: -3%
Change [39]: -66%
HDL-C [40]: 33
Change [41]: -66%
Non-HDL-C [42]: 61
Change [43]: -16%
TC [44]: 69
HDL-C [45]: 20
HDL-C [46]: 25
Change [47]: -59%
Change [48]: 3%
HDL-C [49]: 16 and 18
Plasma cholesterol [50]: 215 mg/dL
